Mutagenic call data for 6 compounds are collected here from PubChem BioAssay AID1259407 (Chemical Carcinogenesis Research Information System (CCRIS), 2018).

The source made the active and inactive calls. How the calls were made is not given here.

The subject of the data set is CCRIS mutagenicity, Ames/micronucleus/aberration tests. Briefly: CCRIS mutagenicity studies.
[1] abbreviates: Test System: AMES SALMONELLA TYPHIMURIUM, Strain/Indicator: TA100, Metabolic Activation: NONE, Method: STANDARD PLATE.
Where [2] appears, read: Test System: AMES SALMONELLA TYPHIMURIUM, Strain/Indicator: TA98, Metabolic Activation: NONE, Method: STANDARD PLATE.

As for `Nc1ncnc2c1ncn2-c1cccc([N+](=O)[O-])c1`, the mutagenic call is “active; positive” (Test System: AMES SALMONELLA TYPHIMURIUM, Strain/Indicator: TA98(1,8-DNP), Metabolic Activation: NONE, Method: PREINCUBATION); “active; positive” (Test System: AMES SALMONELLA TYPHIMURIUM, Strain/Indicator: TA98(1,8-DNP), Metabolic Activation: RAT, LIVER, S-9, PCB, Method: PREINCUBATION); “inactive; negative” (Test System: AMES SALMONELLA TYPHIMURIUM, Strain/Indicator: TA98(NR), Metabolic Activation: NONE, Method: PREINCUBATION); “inactive; negative” (Test System: AMES SALMONELLA TYPHIMURIUM, Strain/Indicator: TA98(NR), Metabolic Activation: RAT, LIVER, S-9, PCB, Method: PREINCUBATION); “active; positive” (Test System: AMES SALMONELLA TYPHIMURIUM, Strain/Indicator: TA98, Metabolic Activation: NONE, Method: PREINCUBATION); “active; positive” (Test System: AMES SALMONELLA TYPHIMURIUM, Strain/Indicator: TA98, Metabolic Activation: RAT, LIVER, S-9, PCB, Method: PREINCUBATION). The mutagenic call (Test System: AMES SALMONELLA TYPHIMURIUM, Strain/Indicator: TA100(1,8-DNP), Metabolic Activation: NONE, Method: PREINCUBATION) was “active; positive”; the mutagenic call (Test System: AMES SALMONELLA TYPHIMURIUM, Strain/Indicator: TA100(1,8-DNP), Metabolic Activation: RAT, LIVER, S-9, PCB, Method: PREINCUBATION) was “active; positive”; the mutagenic call (Test System: AMES SALMONELLA TYPHIMURIUM, Strain/Indicator: TA100(NR), Metabolic Activation: NONE, Method: PREINCUBATION) is “inactive; negative”; the mutagenic call (Test System: AMES SALMONELLA TYPHIMURIUM, Strain/Indicator: TA100(NR), Metabolic Activation: RAT, LIVER, S-9, PCB, Method: PREINCUBATION) was “inactive; negative”; the mutagenic call (Test System: AMES SALMONELLA TYPHIMURIUM, Strain/Indicator: TA100, Metabolic Activation: NONE, Method: PREINCUBATION) was “active; positive”; the mutagenic call (Test System: AMES SALMONELLA TYPHIMURIUM, Strain/Indicator: TA100, Metabolic Activation: RAT, LIVER, S-9, PCB, Method: PREINCUBATION) was “active; positive”. In addition, the mutagenic call is, setting by setting: (Test System: AMES SALMONELLA TYPHIMURIUM, Strain/Indicator: YG1020, Metabolic Activation: NONE, Method: PREINCUBATION) “active; positive”; (Test System: AMES SALMONELLA TYPHIMURIUM, Strain/Indicator: YG1020, Metabolic Activation: RAT, LIVER, S-9, PCB, Method: PREINCUBATION) “active; positive”; (Test System: AMES SALMONELLA TYPHIMURIUM, Strain/Indicator: YG1021, Metabolic Activation: NONE, Method: PREINCUBATION) “active; positive”; (Test System: AMES SALMONELLA TYPHIMURIUM, Strain/Indicator: YG1021, Metabolic Activation: RAT, LIVER, S-9, PCB, Method: PREINCUBATION) “active; positive”; (Test System: AMES SALMONELLA TYPHIMURIUM, Strain/Indicator: YG1024, Metabolic Activation: NONE, Method: PREINCUBATION) “active; positive”; (Test System: AMES SALMONELLA TYPHIMURIUM, Strain/Indicator: YG1024, Metabolic Activation: RAT, LIVER, S-9, PCB, Method: PREINCUBATION) “active; positive”. For the same compound, the mutagenic call is, setting by setting: (Test System: AMES SALMONELLA TYPHIMURIUM, Strain/Indicator: YG1025, Metabolic Activation: NONE, Method: PREINCUBATION) “active; positive”; (Test System: AMES SALMONELLA TYPHIMURIUM, Strain/Indicator: YG1025, Metabolic Activation: RAT, LIVER, S-9, PCB, Method: PREINCUBATION) “active; positive”; (Test System: AMES SALMONELLA TYPHIMURIUM, Strain/Indicator: YG1026, Metabolic Activation: NONE, Method: PREINCUBATION) “active; positive”; (Test System: AMES SALMONELLA TYPHIMURIUM, Strain/Indicator: YG1026, Metabolic Activation: RAT, LIVER, S-9, PCB, Method: PREINCUBATION) “active; positive”; (Test System: AMES SALMONELLA TYPHIMURIUM, Strain/Indicator: YG1029, Metabolic Activation: NONE, Method: PREINCUBATION) “active; positive”; (Test System: AMES SALMONELLA TYPHIMURIUM, Strain/Indicator: YG1029, Metabolic Activation: RAT, LIVER, S-9, PCB, Method: PREINCUBATION) “active; positive”.
Consider `ClCc1ccc(Br)cc1`, for which the mutagenic call under setting [1] is “inactive; negative”.
`O=[N+]([O-])c1cccc2[nH]c3ccccc3c12`: the mutagenic call runs as follows: under setting [2], “active; positive”; (Test System: AMES SALMONELLA TYPHIMURIUM, Strain/Indicator: TA98, Metabolic Activation: RAT, LIVER, S-9, PHENOBARBITAL, Method: STANDARD PLATE) “active; positive”; (Test System: AMES SALMONELLA TYPHIMURIUM, Strain/Indicator: TA1537, Metabolic Activation: NONE, Method: STANDARD PLATE) “inactive; negative”; (Test System: AMES SALMONELLA TYPHIMURIUM, Strain/Indicator: TA1537, Metabolic Activation: RAT, LIVER, S-9, PHENOBARBITAL, Method: STANDARD PLATE) “inactive; negative”; (Test System: AMES SALMONELLA TYPHIMURIUM, Strain/Indicator: TA1538, Metabolic Activation: NONE, Method: STANDARD PLATE) “active; positive”; (Test System: AMES SALMONELLA TYPHIMURIUM, Strain/Indicator: TA1538, Metabolic Activation: RAT, LIVER, S-9, PHENOBARBITAL, Method: STANDARD PLATE) “active; positive”. Also, the mutagenic call (Test System: AMES SALMONELLA TYPHIMURIUM, Strain/Indicator: TA1977, Metabolic Activation: NONE, Method: STANDARD PLATE) is “inactive; negative” and the mutagenic call (Test System: AMES SALMONELLA TYPHIMURIUM, Strain/Indicator: TA1977, Metabolic Activation: RAT, LIVER, S-9, PHENOBARBITAL, Method: STANDARD PLATE) is “inactive; negative”.
For `CCN(C)N=O`, the mutagenic call reads like this: (Test System: AMES SALMONELLA TYPHIMURIUM, Strain/Indicator: TA100, Metabolic Activation: HAMSTER, LIVER, S-9, Method: PREINCUBATION) “active; positive”; (Test System: AMES SALMONELLA TYPHIMURIUM, Strain/Indicator: TA100, Metabolic Activation: HUMAN, LIVER, S-9, Method: PREINCUBATION) “inactive; negative”; (Test System: AMES SALMONELLA TYPHIMURIUM, Strain/Indicator: TA100, Metabolic Activation: PIG, LIVER, S-9, Method: PREINCUBATION) “inactive; negative”; (Test System: AMES SALMONELLA TYPHIMURIUM, Strain/Indicator: TA100, Metabolic Activation: RAT, LIVER, S-9, Method: PREINCUBATION) “inactive; negative”.
As for `CCOP(=O)(OCC)Oc1ccc([N+](=O)[O-])cc1`, the mutagenic call (End Point: IN VITRO MICRONUCLEUS, Test System: HUMAN NEWBORN UMBILICAL CORD BLOOD, Metabolic Activation: NONE) was “active; positive only at highest dose”; the mutagenic call (End Point: IN VITRO MICRONUCLEUS, Test System: HUMAN PERIPHERAL LYMPHOCYTES (MALE/FEMALE ADULT), Metabolic Activation: NONE) was “active; positive only at highest dose”; the mutagenic call (End Point: In vitro micronucleus, Test System: Human peripheral blood lymphocytes, Metabolic Activation: None) was “active; positive. pon1 qq, but not pon1 rr individuals exhibited significant increase in”; the mutagenic call under setting [2] is “active; positive”; the mutagenic call (Test System: AMES SALMONELLA TYPHIMURIUM, Strain/Indicator: TA98, Metabolic Activation: RAT, LIVER, S-9, Method: STANDARD PLATE) was “active; positive”; the mutagenic call under setting [1] is “inactive; negative”. Also, where the note is “Test System: AMES SALMONELLA TYPHIMURIUM, Strain/Indicator: TA100, Metabolic Activation: RAT, LIVER, S-9, Method: STANDARD PLATE”, the mutagenic call is “active; positive”.
On to `CC(C)C(=O)Nc1snc2cc(Cl)ccc12`, for which the mutagenic call under setting [1] is “inactive; negative” and the mutagenic call (Test System: AMES SALMONELLA TYPHIMURIUM, Strain/Indicator: TA100, Metabolic Activation: S-9, Method: STANDARD PLATE) is “inactive; negative”.
